# Target: CBP (Homo sapiens (Human), UniProt Q92793)
# Assay: In vitro CBP inhibition (AlphaScreen, biotinylated H4-tetraacetyl peptide)
# Assay type: binding
# Conditions: AlphaScreen, Table 29; read-out: CBP IC50
# Procedure, shortened: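 His-tagged CBP expressed in E. coli (50 nM final) incubated with biotinylated H4K5/8/12/16(Ac) peptide (20 nM final) in 50 mM HEPES pH 7.3, 10 mM NaCl, 0.25 mM TCEP, 0.1% BSA, 0.005% Brij-35, 0.4% DMSO, 20 min at room temp.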
# Chain of CBP (Q92793 1081-1197): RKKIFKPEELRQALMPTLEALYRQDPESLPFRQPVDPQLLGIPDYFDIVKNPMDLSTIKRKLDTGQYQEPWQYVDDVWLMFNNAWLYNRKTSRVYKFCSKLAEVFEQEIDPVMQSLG
row,Compound,IC50 [nM]
1,"CCc1cc(-c2cnn(-c3ccccc3C(=O)O)c2)cn(C)c1=O [Example 257, 2-[4-(5-Ethyl-1-methyl-6-oxo-1,6-dihydro-pyridin-3-yl)-pyrazol-1-yl]-benzoic acid]",500 to 5000
2,"Cc1cc(-c2cnn(-c3cc(Oc4ccccc4)ccc3C#N)c2)cn(C)c1=O [Example 258, 2-[4-(1,5-Dimethyl-6-oxo-1,6-dihydro-pyridin-3-yl)-pyrazol-1-yl]-4-phenoxy-benzonitrile]",< 500
3,"Cc1cc(-c2cnn(-c3cc(Oc4ccccc4)ccc3C(=O)O)c2)cn(C)c1=O [Example 259, 2-[4-(1,5-Dimethyl-6-oxo-1,6-dihydro-pyridin-3-yl)-pyrazol-1-yl]-4-phenoxy-benzoic acid]",> 5000
4,"COc1ccc(C#N)c(-n2cc(-c3cn(C)c(=O)cc3-c3ccc(=O)[nH]c3)cn2)c1 [Example 260, 4-Methoxy-2-[4-(1′-methyl-6,6′-dioxo-1,6,1′,6′-tetrahydro-[3,4′]bipyridinyl-3′-yl)-pyrazol-1-yl]-benzonitrile]",< 500
5,"COc1ccc(C#N)c(-n2cc(-c3cn(C)c(=O)cc3-c3ccccc3)cn2)c1 [Example 261, 4-Methoxy-2-[4-(1-methyl-6-oxo-4-phenyl-1,6-dihydro-pyridin-3-yl)-pyrazol-1-yl]-benzonitrile]",< 500
6,"COc1ccc(C#N)c(-n2cc(-c3cn(C)c(=O)cc3-c3ccc(F)cc3)cn2)c1 [Example 263, 2-{4-[4-(4-Fluoro-phenyl)-1-methyl-6-oxo-1,6-dihydro-pyridin-3-yl]-pyrazol-1-yl}-4-methoxy-benzonitrile]",< 500
7,"COc1ccc(C#N)c(-n2cc(-c3cn(C)c(=O)cc3-c3ccc(OC)nc3)cn2)c1 [Example 264, 4-Methoxy-2-[4-(6-methoxy-1′-methyl-6′-oxo-1′,6′-dihydro-[3,4′]bipyridinyl-3′-yl)-pyrazol-1-yl]-benzonitrile]",< 500
8,"CCOc1ccc(-c2cc(=O)n(C)cc2-c2cnn(-c3cc(OC)ccc3C#N)c2)cn1 [Example 265, 2-[4-(6-Ethoxy-1′-methyl-6′-oxo-1′,6′-dihydro-[3,4′]bipyridinyl-3′-yl)-pyrazol-1-yl]-4-methoxy-benzonitrile]",< 500
9,"COc1ccc(C#N)c(-n2cc(-c3cn(C)c(=O)cc3-c3ccnc(OC)c3)cn2)c1 [Example 266, 4-Methoxy-2-[4-(2′-methoxy-1-methyl-6-oxo-1,6-dihydro-[4,4′]bipyridinyl-3-yl)-pyrazol-1-yl]-benzonitrile]",< 500
10,"COc1ccc(C(=O)O)c(-n2cc(-c3cn(C)c(=O)cc3-c3ccccc3)cn2)c1 [Example 267, 4-Methoxy-2-[4-(1-methyl-6-oxo-4-phenyl-1,6-dihydro-pyridin-3-yl)-pyrazol-1-yl]-benzoic acid]",< 500
11,"COc1ccc(C(=O)O)c(-n2cc(-c3cn(C)c(=O)cc3-c3ccc(F)cc3)cn2)c1 [Example 269, 2-{4-[4-(4-Fluoro-phenyl)-1-methyl-6-oxo-1,6-dihydro-pyridin-3-yl]-pyrazol-1-yl}-4-methoxy-benzoic acid]",< 500
12,"COc1ccc(C(=O)O)c(-n2cc(-c3cn(C)c(=O)cc3-c3ccc(OC)nc3)cn2)c1 [Example 270, 4-Methoxy-2-[4-(6-methoxy-1′-methyl-6′-oxo-1′,6′-dihydro-[3,4′]bipyridinyl-3∝-yl)-pyrazol-1-yl]-benzoic acid]",< 500
13,"CCOc1ccc(-c2cc(=O)n(C)cc2-c2cnn(-c3cc(OC)ccc3C(=O)O)c2)cn1 [Example 271, 2-[4-(6-Ethoxy-1′-methyl-6′-oxo-1′,6′-dihydro-[3,4′]bipyridinyl-3′-yl)-pyrazol-1-yl]-4-methoxy-benzoic acid]",< 500
14,"COc1ccc(C(=O)O)c(-n2cc(-c3cn(C)c(=O)cc3-c3ccnc(OC)c3)cn2)c1 [Example 272, 4-Methoxy-2-[4-(2′-methoxy-1-methyl-6-oxo-1,6-dihydro-[4,4′]bipyridinyl-3-yl)-pyrazol-1-yl]-benzoic acid]",< 500
15,"COc1ccc(-c2cc(=O)n(C)cc2-c2cnn(-c3cccc(F)c3C#N)c2)cn1 [Example 274, 2-Fluoro-6-[4-(6-methoxy-1′-methyl-6′-oxo-1′,6′-dihydro-[3,4′]bipyridinyl-3′-yl)-pyrazol-1-yl]-benzonitrile]",< 500
16,"Cn1cc(-c2cnn(-c3cccc(F)c3C#N)c2)c(-c2ccc(Cl)cc2)cc1=O [Example 275, 2-{4-[4-(4-Chloro-phenyl)-1-methyl-6-oxo-1,6-dihydro-pyridin-3-yl]-pyrazol-1-yl}-6-fluoro-benzonitrile]",< 500
17,"Cn1ccc(-c2cc(=O)n(C)cc2-c2cnn(-c3cccc(Cl)c3C#N)c2)cc1=O [Example 276, 2-Chloro-6-[4-(1,1′-dimethyl-6,2′-dioxo-1,6,1,′,2′-tetrahydro-[4,4′]bipyridinyl-3-yl)-pyrazol-1-yl]-benzonitrile]",< 500
18,"COc1ccc(-c2cc(=O)n(C)cc2-c2cnn(-c3cccc(Cl)c3C#N)c2)cn1 [Example 277, 2-Chloro-6-[4-(6-methoxy-1′-methyl-6′-oxo-1′,6′-dihydro-[3,4′]bipyridinyl-3′-yl)-pyrazol-1-yl]-benzonitrile]",< 500
19,"COc1cc(-c2cc(=O)n(C)cc2-c2cnn(-c3cccc(F)c3C#N)c2)ccc1C [Example 278, 2-fluoro-6-(4-(4-(3-methoxy-4-methylphenyl)-1-methyl-6-oxo-1,6-dihydro-pyridin-3-yl)-1H-pyrazol-1-yl)benzonitrile]",< 500
20,"COc1cc(-c2cc(=O)n(C)cc2-c2cnn(-c3cccc(Cl)c3C#N)c2)ccc1C [Example 279, 2-chloro-6-(4-(4-(3-methoxy-4-methylphenyl)-1-methyl-6-oxo-1,6-dihydropyridin-3-yl)-1H-pyrazol-1-yl)benzonitrile]",< 500
21,"CCc1ncc(-c2cc(=O)n(C)cc2-c2cnn(-c3cccc(Cl)c3C#N)c2)cn1 [Example 280, 2-chloro-6-(4-(4-(2-ethylpyrimidin-5-yl)-1-methyl-6-oxo-1,6-dihydropyridin-3-yl)-1H-pyrazol-1-yl)benzonitrile]",< 500
22,"CCOc1cc(=O)n(C)cc1-c1cnn(-c2ccccc2C#N)c1 [Example 281, 2-(4-(4-ethoxy-1-methyl-6-oxo-1,6-dihydropyridin-3-yl)-1H-pyrazol-1-yl)benzonitrile]",< 500
23,"CCOc1cc(=O)n(C)cc1-c1cnn(-c2ccccc2C(N)=O)c1 [Example 282, 2-(4-(4-ethoxy-1-methyl-6-oxo-1,6-dihydropyridin-3-yl)-1H-pyrazol-1-yl)benzamide]",< 500

# The next lines start with the values.
row,IC50 [nM],Compound
1,< 500,"Cn1cc(-c2cnn(-c3ccccc3C#N)c2)c(OCCN2CCOCC2)cc1=O [Example 283, 2-(4-(1-methyl-4-(2-morpholinoethoxy)-6-oxo-1,6-dihydropyridin-3-yl)-1H-pyrazol-1-yl)benzonitrile]"
2,< 500,"Cn1ccc(-c2cc(=O)n(C)cc2-c2cnn(-c3ccccc3S(C)(=O)=O)c2)cc1=O [Example 284, 5-[1-(2-Methanesulfonyl-phenyl)-1H-pyrazol-4-yl]-1,1′-dimethyl-1H,1′H-[4,4′]bipyridinyl-2,2′-dione]"
3,< 500,"COc1ccc(-c2cc(=O)n(C)cc2-c2cnn(-c3ccccc3S(C)(=O)=O)c2)cn1 [Example 285, 5′-[1-(2-Methanesulfonyl-phenyl)-1H-pyrazol-4-yl]-6-methoxy-1′-methyl-1′H-[3,4′]bipyridinyl-2′-one]"
4,500 to 5000,Cn1cc(-c2cc(=O)n(C)cc2-c2cnn(-c3ccccc3S(C)(=O)=O)c2)ccc1=O [Example 287]
5,< 500,"Cn1cc(-c2cnn(-c3ccccc3C(=O)NC#N)c2)c(-c2ccc(F)cc2)cc1=O [Example 288, N-cyano-2-(4-(4-(4-fluorophenyl)-1-methyl-6-oxo-1,6-dihydropyridin-3-yl)-1H-pyrazol-1-yl)benzamide]"
6,< 500,"Cn1cc(-c2cc(=O)n(C)cc2-c2cnn(-c3ccccc3C(=O)NC#N)c2)cn1 [Example 289, N-cyano-2-(4-(1-methyl-4-(1-methyl-1H-pyrazol-4-yl)-6-oxo-1,6-dihydropyridin-3-yl)-1H-pyrazol-1-yl)benzamide]"
7,< 500,"COc1ccc(-c2cc(=O)n(C)cc2-c2cnn(-c3ccccc3C(=O)NC#N)c2)cc1 [Example 290, N-cyano-2-(4-(4-(4-methoxyphenyl)-1-methyl-6-oxo-1,6-dihydropyridin-3-yl)-1H-pyrazol-1-yl)benzamide]"
8,< 500,"Cn1cc(-c2cnn(-c3ccccc3C(=O)NC#N)c2)c(-c2ccc(Cl)cc2)cc1=O [Example 291, 2-(4-(4-(4-chlorophenyl)-1-methyl-6-oxo-1,6-dihydropyridin-3-yl)-1H-pyrazol-1-yl)-N-cyanobenzamide]"
9,< 500,"Cn1ccc(-c2cc(=O)n(C)cc2-c2cnn(-c3ccccc3C(=O)NC#N)c2)cc1=O [Example 293, N-cyano-2-(4-(1,1′-dimethyl-2′,6-dioxo-1,1′,2′,6-tetrahydro-[4,4′-bipyridin]-3-yl)-1H-pyrazol-1-yl)benzamide]"
10,< 500,"CNc1ncc(-c2cc(=O)n(C)cc2-c2cnn(-c3ccccc3C(=O)NC#N)c2)cn1 [Example 295, N-cyano-2-(4-(1-methyl-4-(2-(methylamino)pyrimidin-5-yl)-6-oxo-1,6-dihydropyridin-3-yl)-1H-pyrazol-1-yl)benzamide]"
11,< 500,"CCOc1ccc(-c2cc(=O)n(C)cc2-c2cnn(-c3ccccc3C(=O)NC#N)c2)cn1 [Example 296, N-cyano-2-(4-(6-ethoxy-1′-methyl-6′-oxo-1′,6′-dihydro-[3,4′-bipyridin]-3′-yl)-1H-pyrazol-1-yl)benzamide]"
12,< 500,"Cn1cc(-c2cnn(-c3ccccc3-c3nnn[nH]3)c2)c(-c2ccc(Cl)cc2)cc1=O [Example 297, 5-(1-(2-(1H-tetrazol-5-yl)phenyl)-1H-pyrazol-4-yl)-4-(4-chlorophenyl)-1-methylpyridin-2(1H)-one]"
13,< 500,"COc1ccc(-c2cc(=O)n(C)cc2-c2cnn(-c3ccccc3-c3nnn[nH]3)c2)cc1 [Example 298, 4-(4-Methoxy-phenyl)-1-methyl-5-{1-[2-(1H-tetrazol-5-yl)-phenyl]-1H-pyrazol-4-yl}-1H-pyridin-2-one]"
